According to US20220119868A1, “PROFILING RNA-SMALL MOLECULE BINDING SITES WITH OLIGONUCLEOTIDES” (priority 2018, published 2022):

Legend:
[1] = tested on: WT SLI RNA (HCV SL I model); assay: Oligonucleotide profiling of target engagement in vitro (RNase H cleavage); type: biochemical, Hepatitis C virus; settings: antisense oligonucleotide and RNase H
Excerpt: Compound 8 binds the desired site in HCV RNA in vitro and in cells. To validate that the lead compounds bind to the desired site in the HCV RNA genome, an approach to profile binding site by using an antisense oligonucleotide was developed (FIG. 8A). Antisense oligonucleotides bind to complementary RNAs and recruit RNase H, which cleaves the RNA strand. Upon small molecule binding, the RNA's structure is stabilized, making it more difficult for the oligonucleotide to invade the structure. Thus, small molecule binding sites can be read out by inhibition of oligonucleotide cleavage. For in vitro studies, a small segment of the target site was transcribed that folds into the desired structure.
Application of an antisense agent (Table 4) and RNase H cleaves the RNA at the desired site. […] Additional control experiments were completed in which the RNA was mutated to remove 8's binding site and the corresponding complementary oligonucleotide to induce RNase H cleavage.
(§1) Effect of compounds on HCV replication. […] Cytotoxicity assays. […] Oligonucleotide profiling of target engagement in vitro. […] Primers can be found in Table 4. […] Inhibition of kinases. […] . Figure S7C).

[2] = target: RNA motif 5′GAU3′/3′C_A5′ (from RNA library C); assay: In solution, fluorescence-based binding affinity assay
Description: (§2) Affinity of Selected RNA Motif-Small Molecule Interactions. The affinity of exemplar compounds that have inherent fluorescence was measured. […] . Binding affinities were confirmed using a label-free method, biolayer interferometry.
(§3) where n1 is the size of Population 1 (number of sequencing reads for a given RNA from RNA-seq analysis of the selected library), n2 is the size of Population 2 (number of sequencing reads for the same RNA from RNA-seq analysis of the starting library), p1 is the observed proportion of Population 1 (the number of reads for a given RNA from selected library/total number of reads), and p2 is the observed proportion for Population 2 (the number of reads for the same RNA in the starting library/total number of reads). Generation of Logos and DiffLogos: Zobs corresponding to the highest (enriched) 0.5% and lowest (discriminated against) 0.5% scores were analyzed to generate consensus sequences, or Logos. The resulting list of sequences were converted to position weight matrix (PWM) lists for each compound. “Enriched” and “discriminated” sequences were kept separate using JMP®, Version <13.2.1>. SAS Institute Inc., Cary, N.C., 1989-2007. The R package Difflogo,^16 which is part of Bioconductor, was utilized to create the sequence logos from PWM lists for each compound and visually compare the differences between them. Binding Affinity Measurements. Dissociation constants were determined using an in solution, fluorescence-based assay. […] Serial dilutions (1:2) of the small molecule were then completed in 1× Assay Buffer supplemented with 1 mM MgCl2. The solutions were incubated for 30 min at room temperature, transferred to a 96-well plate, and fluorescence intensity measured on a BioTek-FLx800 plate reader. The change in fluorescence intensity as a function of small molecule concentration was fit to a one site binding model per equation 3: […]
as §1

[3] = target: RNA motif 5′GCU3′/3′C_A5′ (from RNA library C); assay: as above
Description: as §2, §3, §1

[4] = target: RNA motif 5′UCUAU3′/3′ACCA5′ (from RNA library C); assay: as above
Description: as §2, §3, §1

[5] = target: RNA motif 5′UCCUU3′/3′AUUA5′ (non-binder); assay: as above
Description: as §2, §3, §1

[6] = target: RNA motif 5′UCCAU3′/3′AUCA (non-binder); assay: as above
Description: as §2, §3, §1

[7] = target: RNA motif 5′GAG3′/3′C_C5′ (from RNA library C); assay: as above
Description: as §2, §3, §1

[8] = target: RNA motif 5′AAC3′/3′U_G5′ (from RNA library C); assay: as above
Description: as §2, §3, §1

[9] = target: RNA motif 5′UGU3′/3′G_A5′ (from RNA library C); assay: as above
Description: as §2, §3, §1

SMILES | inhibition of antisense/RNase H-mediated cleavage of SL I in vitro [1] | Kd [2] [nM] | Kd [3] [nM] | Kd [4] [nM] | Kd [5] [nM] | Kd [6] [nM] | Kd [7] [nM] | Kd [8] [nM] | Kd [9] [nM]
O=C(Nc1ccc(C2=NCCN2)cc1)c1cc(C(=O)Nc2ccc(C3=NCCN3)cc2)cc(C(=O)Nc2ccc(C3=NCCN3)cc2)c1 [Compound 8] | limited the ability of the antisense to mediate cleavage of the target | 600 ± 61 | 450 ± 47 | 5580 ± 440 | – | – | – | – | –
O=C(Nc1cccc(NC(=O)Nc2cc(C(=O)Nc3ccc(C4=NCCN4)cc3)ccc2C(=O)Nc2ccc(C3=NCCN3)cc2)c1)Nc1cc(C(=O)Nc2ccc(C3=NCCN3)cc2)ccc1C(=O)Nc1ccc(C2=NCCN2)cc1 [Compound 7] | – | – | – | – | 2080 ± 300 | 7200 ± 418 | 410 ± 26 | 420 ± 41 | 630 ± 36
